In PMC4906374, “Global Profiling and Inhibition of Protein Lipidation in Vector and Host Stages of the Sleeping Sickness Parasite Trypanosoma brucei” (ACS Infectious Diseases, 2016):

Biological target: T1, TbNMT (Trypanosoma brucei, UniProt Q388H8)
T1 construct: gene Tb10.61.2550; native full-length enzyme in intact bloodstream form parasites; not purified
T1 sequence (Q388H8 1-446): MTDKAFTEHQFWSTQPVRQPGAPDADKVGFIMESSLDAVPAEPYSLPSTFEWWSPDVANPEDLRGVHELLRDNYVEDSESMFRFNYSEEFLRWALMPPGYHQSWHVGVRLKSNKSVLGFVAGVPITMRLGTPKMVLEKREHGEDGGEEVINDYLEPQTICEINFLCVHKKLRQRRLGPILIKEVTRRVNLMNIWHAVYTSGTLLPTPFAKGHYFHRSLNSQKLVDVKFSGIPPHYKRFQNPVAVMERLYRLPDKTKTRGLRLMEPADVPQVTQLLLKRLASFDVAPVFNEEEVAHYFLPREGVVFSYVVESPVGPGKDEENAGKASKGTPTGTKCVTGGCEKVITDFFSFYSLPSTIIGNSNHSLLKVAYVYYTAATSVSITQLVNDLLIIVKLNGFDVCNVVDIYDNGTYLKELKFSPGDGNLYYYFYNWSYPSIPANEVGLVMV
Assay: in-gel fluorescence of YnMyr tagging (CuAAC, NaOH-treated gels) in intact BSF parasites
Assay type: cell-based
Conditions: read-out: TC50 (tagging-IC50); 100 uM YnMyr, 1 h inhibitor pretreatment, 8 h labelling, 37 °C; whole-parasite value, not isolated enzyme

Cc1noc(C)c1NS(=O)(=O)c1c(Cl)cc(-c2ccnc(N3CCNCC3)c2)cc1Cl [compound 2, inhibitor 2]
IC50: 2.57 ± 0.04 µM
